The values below come from patent US4649156A, “6-nitroprostaglandin derivatives” (Teijin Limited, priority 1982, dated 1987).

Each structure is given as a SMILES string. Converted amounts (≈) assume the structure as drawn.

The test system of one assay is platelet aggregation. Kind of assay: In vitro inhibitory activity of platelet aggregation (ADP-induced, platelet-rich plasma). The class given is cell-based, rabbit (Japanese domestic white male rabbits). Particulars: Oryctolagus cuniculus, rabbit PRP, 10 μM (final) ADP, pre-incubated at 37° C. for 2 minutes, read-out: IC50 (minimum concentration of the drug which inhibited more than 50% of platelet aggregation). The method, then:
The in vitro platelet aggregation imhibiting activity of the compounds of the invention were examined by using rabbits. Blood was withdrawn from the ear vein of Japanese domestic white male rabbits weighing 2.5 to 3.5 kg. A mixture of a 3.8% trisodium citrate solution and the blood in a ratio of 1:9 was centrifuged at a speed of 1000 rpm for 10 minutes. The upper layer was separated as platelet-rich plasma (PRP). The lower layer was further centrifuged at a speed of 28000 rpm for 10 minutes. The upper layer was separated as platelet-poor plasma (PPP). The number of platelets was adjusted to 6×10^5 /μl to 7×10^5 […] by diluting the PRP with PPP. 25 microliters of the test compounds prepared as shown below was added in an amount of 25 to 250 microliters of PRP after the adjustment, and the mixture was pre-incubated at 37° C. for 2 minutes, and then 10 μM (final) of ADP was added. By using an aggregometer, changes in transmission were recorded.
The drug was dissolved in ethanol to a concentration of 10 mg/ml, and successively diluted with phosphate buffer (pH 7.4) prior to use.
The rate of inhibition of platelet aggregation was determined from the following equation. [formula] To : the transmittance of the system containing the phosphate buffer, T: The transmittance of the system to which the test drug was added. […]

For assay [1], the system named is blood pressure and heart beat rate of rats. Kind of assay: Measurement of the hypotensive activity (blood pressure and heart beat rate, i.v., anesthetized rats). Conditions: Rattus norvegicus, iv, urethane/α-chloralose anesthesia; for ED10: read-out: H-ED10 (dosage which caused a 10% increase of the heart rate); for ED20: read-out: P-ED20 (dosage which caused a 20% lowering of the mean blood pressure). The assay is classed as in vivo, rat (male wister rats). The method, then:
Measurement of the Hypotensive Activity
The actions of the 6-nitroprostaglandin E1 derivatives of the invention on the blood pressure and heart beat rate of rats were examined by intravenous injection under anesthesia.
Male wister rats weighing about 250 g were used. Urethane (500 mg/kg) and α-chloralose (100 mg/kg) were intraperitoneally administered to the rats. The rats were anesthetized and fixed in place.
Each of the test compounds was dissolved in a small amount of ethanol and diluted with physiological saline to adjust the final ethanol concentration to not more than 5%. The solution was intravenously injected into the rats through a catheter inserted into the femoral vein.
The blood pressure of the rats were measured by a pressure transducer through a catheter inserted into the carotid artery of the rats. The heart beat rate was determined from the blood pressure pulse.
The action of the test compound on the blood pressure was expressed as the dosage (p-EDz20, μg/kg) of the test compound which caused a 20% lowering of the mean blood pressure before administration of the compound. The action of the test compound on the heart rate was expressed as the dosage (H-ED10, μg/kg) of the test compound which caused a 10% increase of the heart rate from the heart beat rate before administration of the test compound.

The next assay concerns indomethacin ulcer. The assay can be described thus: Measurement of inhibitory activity on indomethacin ulcer. The class given is in vivo, rat (wistar-strain male rats). Conditions: indomethacin 20 mg/kg oral, n=8. The method, then:
Seven week-oil wistar-strain male rats (body weight 200 to 220 g) were fasted for 24 hours but water was provided freely, and then used in the following experiment.
Each of the test compounds suspended in phosphate Buffers (pH 7.4) was orally administered to the rats, and 30 minutes later, indomethacin was orally administered in a dose of 20 mg/kg. Six hours later, the animals were sacrificed. The abdomen was cut open, and the stomach was removed. 1% Even's blue was injected in an amount of 0.5 ml/rat into the rats through the tail vein under ether anesthesia 10 minutes before sacrificing.
12 ml of a 1% formalin was injected into the stomach and the stomach was further dipped in 1% formaline for about 10 minutes for the fixation. The stomach was cut open on the side of the greater curvature, and spread on a glass plate. The lengths of ulcers generated in the glandular stomach were measured by using a solid microscope. The sum of the lengths of the ulcers for each nimal was used as the ulcer index. The ulcer inhibiting ratio of the test compound was calculated in accordance with the following equation. [formula]
The control group was given phosphate buffer saline (pH 7.4) indomethacin alone.

Take `CCCCC[C@H](O)/C=C/[C@H]1[C@H](O)CC(=O)[C@@H]1CC(CCCCC(=O)OC)[N+](=O)[O-]` (stereo partly drawn) [6-nitroprostaglandin E1 methyl ester]: in the assay with platelet aggregation, the IC50 was 4.5 µg/mL (≈ 10.9 µM). Further, in assay [1], the ED10 was more than 0.01 mg/kg and the ED20 came out at 0.01 mg/kg.
For the compound `CCCC[C@H](C)C[C@H](O)/C=C/[C@H]1[C@H](O)CC(=O)[C@@H]1CC(CCCCC(=O)OC)[N+](=O)[O-]` (stereo partly drawn) [17(S),20-dimethyl-6-nitroprostaglandin E1 methyl ester], in the assay with platelet aggregation, the IC50 worked out at 0.017 µg/mL (≈ 0.0385 µM). In addition, the ED10 in assay [1] was more than 0.01 mg/kg. Besides, the ED20 in assay [1] worked out at 0.0004 mg/kg. Moreover, the entries for the “Inhibition (ulcer inhibiting ratio)” value in the assay on indomethacin ulcer (3 μg/kg oral), with indomethacin ulcer (10 μg/kg oral) and in the assay with indomethacin ulcer (30 μg/kg oral) were 12.6%, 51.0% and 80.4%, respectively. In addition, the Ulcer index stood at 12.5 ± 3.2 mm with indomethacin ulcer (3 μg/kg oral); 7.0 ± 1.8 mm in the assay on indomethacin ulcer (10 μg/kg oral); 2.8 ± 1.2 mm with indomethacin ulcer (30 μg/kg oral, **P < 0.01).
